Data from patent US8026342B2, “Compositions and methods for binding sphingosine-1-phosphate” (Lpath, Inc., priority 2006, dated 2011).

What was measured:
[1] = test system: retinal neovascularization; experiment: Murine model of retinopathy of prematurity: retinal neovascularization; type: in vivo, C57BL/6 mice; details: 5.0 μg/eye intravitreal
Method: C57BL/6 mice (n=7) were placed in 75% oxygen at day 7 of life and at day 12 of life were returned to room air and given an intraocular injection of 5 μg of sonepcizumab in one eye and vehicle in the contralateral eye. At day 17, the mice received an intraocular injection of anti-PECAM antibody labeled with FITC and after 8 hours, mice were euthanized and eyes were removed and fixed in PBS-buffered formalin at room temperature for 5 hours. Retinas were dissected and washed with phosphate-buffered saline containing 0.25% Triton X-100 and whole mounted. Slides were viewed with a Nikon Fluorescence Microscope and the area of retinal NV per retina was measured by image analysis.

[2] = test system: VEGF-induced angiogenesis; experiment: VEGF-induced angiogenesis in GFR Matrigel plug assay; type: in vivo, nu/nu mice; details: 10 mg/kg i.p. every 72 hrs, 12 days
Method: Neovascularization in vivo was performed using the GFR Matrigel plug assay as described in Staton, et al., Int J Exp Pathol, 2004. 85(5): p. 233-48. 4-6 week old nu/nu mice were injected in the left flank with 500 uL of ice-cold GFR Matrigel. The GFR Matrigel was injected either alone (control) or after addition of 10 ug/mL VEGF supplemented with 100 ug/ml heparin. Groups consisted of 3 animals for control and sonepcizumab treatment. Animals were treated with the saline or sonepcizumab (10 mg/kg) 1 day prior to the implantation of GFR Matrigel and doses were administrated i.p. every 72 hrs for the duration of the experiment. After 12 days animals were sacrificed; the plugs were excised and immediately fixed in zinc and formalin-free fixative overnight, embedded in paraffin and sectioned (5 um). Paraffin-embedded sections were then stained for CD31 (Pharmingen). Images (9 images per section, 3 sections per plug) were taken by digital camera at 20× magnification and the CD31 positive staining was then quantified by PhotoShop 6.0 program and expressed as angiogenesis score (pixel^2) by ImageJ.

COLO205 tumor = experiment: SC COLO205 colorectal tumor xenograft; type: in vivo, nude NCr (nu/nu) mice
Method: Nude mice were implanted sc near the right flank with one fragment per mouse of COLO 205 tumor from an in vivo passage. All treatments were initiated the day when 60 mice in each experiment established tumors ranging in size from approximately 100 to 200 mm3. […] Avastin was administered iv at a dosage of 40 mg/kg/dose on a q7d schedule, injected in a volume of 0.1 mL/20 g body weight. Paclitaxel (positive control), was administered iv at a dosage of 15 mg/kg/dose on a q1d×5 schedule, injected in a volume of 0.1 mL/10 g body weight.
Animals were observed daily for mortality. Tumor dimensions and body weights were collected twice weekly starting with the first day of treatment and including the day of study termination. When the median tumor in the vehicle-treated control group in each study reached approximately 4,000 mg, the study was terminated. Tumors from each animal were harvested, wet weights were recorded, tumors were processed for determination of microvascular densities (MVD) by CD-31 staining. Tumor weights (mg) were calculated using the equation for an ellipsoid sphere (l×w^2)/2=mm^3, where l and w refer to the larger and smaller dimensions collected at each measurement and assuming unit density (1 mm^3=1 mg).

retinal macrophages = experiment: Oxygen induced retinopathy (ROP) model: retinal macrophage infiltration; type: in vivo, C57BL/6 mice; details: 5 μg intraocular at day 12, read at day 17
Method: At day 17 of life, the mice received an intraocular injection of FITC-labeled antibody to F4/80 (a pan-macrophage marker) and after 8 hours, mice were euthanized. The globes were removed and fixed in PBS-buffered formalin at room temperature for 5 hours. Retinas were dissected and washed with phosphate-buffered saline containing 0.25% Triton X-100 and whole mounted. Slides were viewed with a Nikon Fluorescence Microscope and retinal macrophages were quantified.

HUVECs = experiment: HUVEC tube formation on GF-reduced Matrigel; type: cell-based, human; details: co-incubated with S1P
Method: FIG. 5 has two panels, A and B. In panel A, S1P is shown to promote neovascularization through induction of HUVECs tube formation and migration, which is reduced by SPHINGOMAB. […] The number of cells that migrated to the Matrigel membrane were counted in five independent fields.
Experiments were performed as described by Visentin et al. (Cancer Cell 2006 March; 9(3):225-38).

[3] = test system: Matrigel plug neovascularization; experiment: In vivo Matrigel plug assay for neovascularization (S1P, VEGF, bFGF); design: species or system mice
Method: Based on in vivo studies showing that S1P increased endothelial capillary growth into subcutaneously implanted Matrigel plugs, we speculated that SPHINGOMAB could reduce de novo BV formation in vivo. To investigate this, we employed the in vivo Matrigel Plug assay for neovascularization. In one set of experiments, Matrigel was supplemented with either 1 μM S1P, 0.5 μg/mL bFGF or 1 μg/mL VEGF and then […]. into mice (n=4). After 10 days, the mice were heparinized and injected with the fluorescent lectin, Isolectin B4-FITC, which binds to adhesion molecules expressed by vascular EC that form the growing BVs. The plugs were then excised, frozen in OCT, sectioned and viewed for FITC-stained BVs.
Sections of the plugs were then stained with hemotoxyln & eosin for evaluation of EC infiltration (FIG. 6B). The infiltration of ECs is a critical step in neo-vascularization. […] Cell infiltration is presumed to be ECs although we recognize that other cell types such as immune cells may also be stained.
Endogenous S1P from the blood and surrounding tissue could supply a wound with pro-angiogenic stimuli. The ability of SPHINGOMAB to reduce endogenous S1P in a wound was investigated. Optimally stimulated plugs (Matrigel supplemented with 0.5 μg/mL bFGF or […] VEGF) were implanted into mice. Mice received i.p. injections of 25 mg/kg SPHINGOMAB or saline every 48 hrs starting 1 day prior to Matrigel implantation. Each treatment group (Matrigel, Matrigel plus GF or Matrigel plus GF and administered SPHINGOMAB) consisted of a minimum of 6 mice. After 10 days, the mice were treated with heparin, injected with Isolectin B4-FITC, the plugs excised, embedded in OCT freezing medium and sectioned.

[4] = test system: ovarian cancer (OVCAR3) cells; experiment: S1P-induced IL-8 release from ovarian cancer cells; type: cell-based, human; details: 1 uM S1P
Method: After 22 hours of incubation, cell supernatants were collected and IL-8 secretion was measured by ELISA using an R&D Systems Quantikine human CXCL8/IL-8 kit.
In parallel, all the variants were tested for their effects on S1P-induced cytokine release from cancer cells.

[5] = LT1009 25 mg/kg ip q3d, increased to 75 mg/kg on Day 21
[6] = LT1009 50 mg/kg ip q3d, Avastin 40 mg/kg iv q7d, Paclitaxel 15 mg/kg iv q1d×5
[7] = 25 mg/kg i.p. every 48 hrs, 10 days

Row | Molecule | reduction in retinal neovascularization compared to saline control [1] | prevention of VEGF-stimulated increase in cellularity and microvessel density [2] | % Reduction compared to Vehicle-Treated Mice (COLO205 tumor; [5]) | Final Tumor Weights (COLO205 tumor; [5]) | % Reduction compared to Vehicle-Treated Mice (COLO205 tumor; [6]) | Final Tumor Weights (COLO205 tumor; [6]) | # of macrophages per retina (retinal macrophages) | % reduction in macrophage density (retinal macrophages) | % reduction in macrophage density (retinal macrophages; listed as S1P antibody) | formation of capillary-like structures (HUVECs) | decrease in neovascularization of VEGF-containing plugs vs saline-treated animals [3, 7] | decrease in neovascularization of bFGF-containing plugs vs saline-treated animals [3, 7] | EC infiltration into S1P-containing Matrigel plugs ([3]; systemic, every 48 hrs) | reduction of S1P-induced IL-8 release [4]
1 | LT1009: humanized anti-S1P IgG1/kappa mAb with Cys to Ala in HCDR2, light chain with 5 backmutations; SEQ ID NO: 31/32 | ~4 fold | ~80% | 20% | 2465.60 mg | 32% | 2071.17 mg | 1136 ± 33 | 55% | 55.4 ± 1.3% | – | – | – | – | –
2 | LT1002: murine anti-S1P monoclonal antibody, IgG1 kappa, from hybridoma clone 306D326.26 (antibody, listed as Mus sp., V domains shown) VH: QAHLQQSDAELVKPGASVKISCKVSGFIFIDHTIHWMKQRPEQGLEWIGCISPRHDITKYNEMFRGKATLTADKSSTTAYIQVNSLTFEDSAVYFCARGGFYGSTIWFDFWGQGTTLTVS VL: ETTVTQSPASLSMAIGEKVTIRCITTTDIDDDMNWFQQKPGEPPNLLISEGNILRPGVPSRFSSSGYGTDFLFTIENMLSEDVADYYCLQSDNLPFTFGSGTKLEIK | – | – | – | – | – | – | – | – | – | failed to form capillary-like structures | 5 fold | 8.5 fold | reduced amount of EC infiltration | reduced IL-8 release
